Data taken from patent US6599917B1, “Quinuclidine compounds and drugs containing the same as the active ingredient” (priority 1999, dated 2003).
pIC50: −log10 of the molar value.

molecular target: T1, squalene synthesizing enzyme (Rattus norvegicus, UniProt Q02769); test: Measurement of squalene synthesizing enzyme inhibitive activity by using a rat liver microsome; type: biochemical; conditions: [3H]-farnesylpyrophosphoric acid
T1 construct: The liver was excised from a male Spraugue-Dawly rat; from tissue; host or cells: liver microsome fraction of male Sprague-Dawley rat (8 to 9 weeks)
T1 sequence (Q02769 1-416): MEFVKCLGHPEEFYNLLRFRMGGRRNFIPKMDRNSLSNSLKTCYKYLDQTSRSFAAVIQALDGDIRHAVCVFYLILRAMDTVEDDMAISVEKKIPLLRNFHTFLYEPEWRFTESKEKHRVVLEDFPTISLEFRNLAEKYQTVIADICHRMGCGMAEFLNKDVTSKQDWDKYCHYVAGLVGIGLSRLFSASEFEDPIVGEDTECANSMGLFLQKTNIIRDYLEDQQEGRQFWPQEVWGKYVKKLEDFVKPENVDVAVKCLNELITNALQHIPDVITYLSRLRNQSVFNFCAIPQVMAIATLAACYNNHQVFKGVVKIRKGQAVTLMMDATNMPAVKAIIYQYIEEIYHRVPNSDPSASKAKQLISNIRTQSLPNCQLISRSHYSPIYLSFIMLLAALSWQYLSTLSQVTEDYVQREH
Experimental: Measurement of Squalene Synthesizing Enzyme Inhibitive Activity by Using a Rat Liver Microsome
(I) The reaction was run on a scale of 500 μ1. 200 µl of a solution containing 125 mM tris-hydrochloric acid (pH: 7.3), 2.5 mM magnesium chloride, 5 mM potassium fluoride and 10 mM reduction type nicotinamidoadenine dinucleotide phosphoric acid, 100 µl of the specimen solution with a 5-fold concentration, 100 µl of distilled water and 50 µl of 0.4 to 1 mg/ml rat liver microsome prepared by the following method were mixed.
(II) The above mixture was pre-incubated at 37° C. for 10 minutes and thereafter, 50 µl of 100 μM [^3H]-farnesylpyrophosphoric acid (30 mCi/mmol, NEN) was added to the mixture to start a reaction. The reaction was continued at 37° C. for 10 minutes. 1 ml of ethanol was added to the resulting mixture to terminate the reaction and then 1 ml of distilled water and 3 ml of petroleum ether were added to the reaction solution, which was then shaken for 30 minutes. The water phase was separated from the oil phase, the water phase was frozen at −70° C. in dry ice/methanol and the radiative activity of the organic phase was measured using a liquid scintillator. Or the organic phase was evaporated to dryness using nitrogen gas and the residue was dissolved as a marker in 25 µl of chloroform containing squalene, farnesol and cholesterol. This sample was spotted on a TCL plate (Merck) and developed using heptane for 15 to 20 minutes. A band of squalene was cut from the plate to measure the radiative activity by using a liquid scintillation counter. The data was expressed by a concentration (IC50) at which 50% of the radiative activity of a control group was inhibited.
Method of the Preparation of a Rat Liver Microsome
The following operations were all carried out on ice and the centrifugation was performed at 4° C. The liver was excised from a male Spraugue-Dawly rat (hereinafter referred to as SD rat) (8 to 9 weeks age) and perfused with 1.15% potassium chloride to remove the blood. Then, the liver was minced using a forceps and the minced liver was homogenized using a Teflon homogenizer. The resulting sample was centrifuged at 16000×g twice for 15 minutes. The supernatant was further centrifuged at 105000×g for 60 minutes. The obtained deposit was determined as a microsome fraction, which was then suspended in a 25 mM tris-hydrochloric acid solution. The concentration of protein was measured quantitatively by a Bradford method and the concentration of protein was adjusted to 20 mg/ml by using the same solution. The resulting solution was stored at […].

Going from `OC1(C#Cc2cnc(-c3ccc4c(c3)OCO4)nc2Cc2ccccc2)CN2CCC1CC2` (stereo not drawn) [Example 19, 3-[4-Benzyl-2-(3,4-methylenedioxyphenyl)-5-pyrimidyl]ethynyl-3-quinuclidinol] to `O=C1[C@H](O)CCN1c1ccc(C#C[C@@]2(O)CN3CCC2CC3)c(Cc2ccccc2)n1` [Example 142, (3R)-3-[2-Benzyl-6-[(3R)-3-hydroxy-2-pyrrolidinone-1-yl]-3-pyridyl]ethynyl-3-quinuclidinol], the pIC50 rises from 8.00 to 8.30 (0.30 log units).

Compared with `CO[C@@H]1CCN(c2ccc(C#C[C@@]3(O)CN4CCC3CC4)c(Cc3ccccc3)n2)C1=O` [Example 144, (3R)-3-[2-Benzyl-6-[(3R)-3-methoxy-2-pyrrolidinone-1-yl]-3-pyridyl]ethynyl-3-quinuclidinol], `CO[C@@H]1CN(c2ccc(C#C[C@@]3(O)CN4CCC3CC4)c(Cc3ccccc3)n2)C[C@H]1OC` [Example 104, (3R)-3-[2-Benzyl-6-[(3R,4R)-3,4-dimethoxypyrrolidine-1-yl)-3-pyridyl]ethynyl-3-quinuclidinol] is 0.42 log units lower in pIC50: 8.59 for the first, 8.17 for the second.

Compared with `O[C@]1(C#Cc2cnc(-c3ccc4c(c3)OCO4)cc2Cc2ccccc2)CN2CCC1CC2` [Example 180, (3R)-3-[4-Benzyl-2-(3,4-methylenedioxyphenyl)-5-pyridyl]ethynyl-3-quinuclidinol], “3-[4-Benzyl-2-(3-pyridyl)-5-pyridyl]ethynyl-3-quinuclidinol [Example 18]” is 0.60 log units lower in pIC50: 8.20 for the first, 7.60 for the second.

First: OC1(C#Cc2cnc(-c3ccc4c(c3)OCO4)cc2Cc2ccccc2)CN2CCC1CC2 (stereo not drawn) [Example 1, 3-[4-Benzyl-2-(3,4-methylenedioxyphenyl)-5-pyridyl]ethynyl-3-quinuclidinol]
Second: O[C@]1(C#Cc2cc(Cl)c(N3CCC4(C3)OCCO4)nc2Cc2ccccc2)CN2CCC1CC2 [Example 119, (3R)-3-[2-Benzyl-5-chloro-6-(3,3-ethylenedioxypyrrolidine-1-yl)-3-pyridyl]ethynyl-3-quinuclidinol]
The pIC50 of the first is 0.41 log units lower: 8.00 for the first, 8.41 for the second. The second is the more potent here.

First: CO[C@@H]1CN(c2ccc(C#C[C@@]3(O)CN4CCC3CC4)c(Cc3ccccc3)n2)C[C@H]1O [Example 10, (3R)-3-[2-Benzyl-6-[(3R,4R)-3-hydroxy-4-methoxypyrrolidine-1-yl]-3-pyridyl)ethynyl-3-quinuclidinol]
Second: COC1CCN(c2ccc(C#CC3(O)CN4CCC3CC4)c(Cc3ccccc3)n2)CC1 (stereo not drawn) [Example 9, 3-[2-Benzyl-6-(4-methoxypiperidino)-3-pyridyl)ethynyl-3-quinuclidinol]
The pIC50 of the first is 1.23 log units higher: 8.70 for the first, 7.47 for the second. The first is the more potent here.

`OC1(C#Cc2cnc(-c3ccccn3)cc2Cc2ccccc2)CN2CCC1CC2` (stereo not drawn) [Example 2, 3-[4-Benzyl-2-(2-pyridyl)-5-pyridyl]ethynyl-3-quinuclidinol] gave a pIC50 of 7.70.

system: cholesterol biosynthesis; test: Measurement of cholesterol biosynthesis inhibitive activity in a rat; type: in vivo; conditions: 2 h; male SD rat, oral, dose 2 mg/kg, inhibition rate to control group
Experimental: Measurement of Cholesterol Biosynthesis Inhibitive Activity in a Rat
(I) An SPF grade male SD rat (4 weeks age, SLC) was bred for more than one week in a day-night-reversal room and subjected to an experiment made in the daytime. The compound dissolved in a 2% Tween 80 solution was administered (5 ml/kg) to the rat using an oral sonde. After one hour, a [1-^14C]Acetic acid, sodium salt (1.67-2.22 GBq/mmol, 37 MBq/ml, NEN) prepared by diluting to 1.85 MBq/ml by using physiological saline was intraabdominally administered (300 μ1/animal). After one hour, the rat was anesthetized by diethyl ether to carry out exsanguination from the aorta abdominalis. The collected blood was centrifuged at 3000 rpm for 10 minutes to prepare blood plasma.
(II) 1 ml of 4N KOH and 1 ml of ethanol were added to 2 ml of the blood plasma, which was then incubated at 65° C. for one hour and there after, 3 ml of petroleum ether was added. The plasma was shaken for 30 minutes. After the water phase was separated from the organic phase by centrifugation, it was frozen at −80° C. and the radiative activity of the organic phase was measured using a liquid scintillation counter. Or the organic phase was evaporated to dryness using nitrogen gas and the residue was dissolved as a marker in 25 µl of chloroform containing squalene, farnesol and cholesterol. This sample was applied to a TCL plate (Merck) and developed using toluene and isopropyl ether (1:1) for 15 to 20 minutes. A band of cholesterol was cut from the plate to measure the radiative activity by using a liquid scintillation counter. The cholesterol biosynthesis inhibition activity was expressed by an inhibition rate (%) to a control group.

`CO[C@@H]1CN(c2ccc(C#C[C@@]3(O)CN4CCC3CC4)c(Cc3ccccc3)n2)C[C@H]1OC` [Example 104, (3R)-3-[2-Benzyl-6-[(3R,4R)-3,4-dimethoxypyrrolidine-1-yl)-3-pyridyl]ethynyl-3-quinuclidinol] showed an inhibition in vivo at 2 mg/kg of 88%.

same assay, conditions: 2 h; male SD rat, oral, dose 3 mg/kg, inhibition rate to control group

Going from `COCCOc1cc(Cc2ccccc2)c(C#CC2(O)CN3CCC2CC3)cn1` (stereo not drawn) [Example 6, 3-[4-Benzyl-2-(2-methoxyethoxy)-5-pyridyl]ethynyl-3-quinuclidinol] to `COCCOc1ccc(C#C[C@@]2(O)CN3CCC2CC3)c(Cc2ccccc2)n1` [Example 147, (3R)-3-[2-Benzyl-6-(2-methoxyethyl)oxy-3-pyridyl]ethynyl-3-quinuclidinol], the inhibition in vivo at 3 mg/kg rises from 73% to 87%.

Going from `O=C1[C@H](O)CCN1c1ccc(C#C[C@@]2(O)CN3CCC2CC3)c(Cc2ccccc2)n1` [Example 142, (3R)-3-[2-Benzyl-6-[(3R)-3-hydroxy-2-pyrrolidinone-1-yl]-3-pyridyl]ethynyl-3-quinuclidinol] to `CO[C@@H]1CN(c2ccc(C#C[C@@]3(O)CN4CCC3CC4)c(Cc3ccccc3)n2)C(=O)[C@@H]1OC` [Example 123, (3R)-3-[2-Benzyl-6-[(3R,4R)-3,4-dimethoxy-2-pyrrolidinone-1-yl]-3-pyridyl]ethynyl-3-quinuclidinol], the inhibition in vivo at 3 mg/kg rises from 82% to 86%.

Compared with `COCCOc1ccc(C#CC2(O)CN3CCC2CC3)c(Cc2ccccc2)n1` (stereo not drawn) [Example 12, 3-[2-Benzyl-6-(2-methoxyethyloxy)-3-pyridyl)ethynyl-3-quinuclidinol], `COCCCOc1ccc(C#CC2(O)CN3CCC2CC3)c(Cc2ccccc2)n1` (stereo not drawn) [Example 13, 3-[2-Benzyl-6-(3-methoxypropyloxy)-3-pyridyl]ethynyl-3-quinuclidinol] is higher in inhibition in vivo at 3 mg/kg: 78% for the first, 87% for the second.

For `COCCCNc1ccc(C#CC2(O)CN3CCC2CC3)c(Cc2ccccc2)n1` (stereo not drawn) [Example 11, 3-[2-Benzyl-6-(3-methoxypropylamino)-3-pyridyl)ethynyl-3-quinuclidinol], the inhibition in vivo at 3 mg/kg was 72%.

same assay, conditions: male SD rat, oral, dose 3 mg/kg, inhibition rate to control group

First: COC(=O)CCC(=O)OCCCOc1ccc(C#CC2(O)CN3CCC2CC3)c(Cc2ccccc2)n1 (stereo not drawn) [Example 168, 3-[2-Benzyl-6-[3-(3-methoxycarbonylpropanoyloxy)propyl]oxy-3-pyridyl]ethynyl-3-quinclidinol]
Second: C[C@H](NC(=O)OC(C)(C)C)C(=O)OCCCOc1ccc(C#CC2(O)CN3CCC2CC3)c(Cc2ccccc2)n1 (stereo partly drawn) [Example 169, 3-[2-Benzyl-6-[3-[N-(tert-butoxycarbonyl)aranyloxy]propyl]oxy-3-pyridyl]ethynyl-3-quinuclidinol]
The “Cholesterol biosynthesis inhibitive activity inhibition (%)” value of the first is lower: 89% for the first, 92% for the second.
